Tested on: Alternaria solani
Test: Activity against early blight of tomato caused by Alternaria solani (protective spray, potted plants)
Format: in vivo
Conditions: 63 ppm active compound, tomato cultivar Goldene Prinzessin, infected next day, assessed after 5 days; untreated plants 90% infected
Experimental: The active compounds were prepared as a stock solution comprising 0.25% by weight of active compound in acetone or DMSO. 1% by weight of the emulsifier Uniperol® EL (wetting agent having emulsifying and dispersing action based on ethoxylated alkylphenols) was added to this solution, and the mixture was diluted with water to the desired concentration. Leaves of potted plants of the cultivar “Goldene Prinzessin” were sprayed to run off point with an aqueous suspension having the concentration of active compounds stated below. The next day, the leaves were infected with an aqueous […] suspension of Alternaria solani in 2% biomalt solution having a density of 0.17×10^6 spores/ml. The plants were then placed in a water-vapor-saturated chamber at temperatures of between 20 and 22° C. After 5 days, the disease on the leaves of the untreated, but infected control plants had developed to such an extent that the infection could be determined visually in %.

CCC(C)Nc1c(-c2ccc(OC)cc2Cl)c(Cl)nc2ncnn12 (racemic) [Compound I-3, 5-chloro-6-(2-chloro4-methoxyphenyl)-7-but-2-ylamino-[1,2,4]-triazolo[1,5-a]pyrimidine]
infection of the leaves, determined visually in %: no infection

Reference: patent publication US20070149400A1, “6-(2-Chloro-4-alkoxyphenyl)triazolopyrimidines, their preparation and their use for controlling harmful fungi, and compositions comprising these compounds” (priority 2003, published 2007)
